21 molecules from patent publication US8030354B2, “Substituted biphenyl GPR40 modulators” (Amgen Inc., priority 2007, dated 2011) can be followed below.

Molecules are shown by their SMILES. pEC50: −log10 of the molar value.

The assay deals with GPR40 (Homo sapiens, UniProt O14842). The assay can be described thus: Cell-based aequorin assay (CHO cells stably expressing GPR40 and aequorin). On the set-up: expressed in transfected cells; host or cells: CHO cells stably transfected with GPR40 and aequorin. To be noted: activation of human GPR40, CHO cells, 0.01% HSA. The essentials: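 CHO cells stably co-expressing GPR40 and aequorin, loaded with coelenterazine (1 ug/mL, 2 h, room temperature) in H/HBSS with 20 mM Hepes and 0.01% fatty acid-free HSA. Serially diluted compounds added; luminescence recorded over 20 s. EC50 from dose-response of maximum relative light units.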
Sequence of GPR40 (O14842 whole entry): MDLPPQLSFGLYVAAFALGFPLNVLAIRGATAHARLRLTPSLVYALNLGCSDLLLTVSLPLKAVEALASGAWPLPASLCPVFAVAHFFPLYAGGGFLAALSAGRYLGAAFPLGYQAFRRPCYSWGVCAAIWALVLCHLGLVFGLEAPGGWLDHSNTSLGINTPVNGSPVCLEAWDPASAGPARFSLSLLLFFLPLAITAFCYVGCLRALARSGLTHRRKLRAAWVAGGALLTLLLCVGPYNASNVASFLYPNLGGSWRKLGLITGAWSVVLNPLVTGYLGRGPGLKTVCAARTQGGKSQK
`CCC[C@H](CC(=O)O)c1cccc(OCc2ccc(-c3ccccc3F)c(C(C)(C)C)c2)c1` (single isomer, unassigned) [Example 67.18, (3R)-3-(3-(((2-(1,1-Dimethylethyl)-2′-fluoro-1,1′-biphenyl-4-yl)methyl)oxy)phenyl)hexanoic acid or (3S)-3-(3-(((2-(1,1-dimethylethyl)-2′-fluoro-1,1′-biphenyl-4-yl)methyl)oxy)phenyl)hexanoic acid]: the pEC50 was 5.00 to 6.00.
As to `CCC[C@H](CC(=O)O)c1cccc(OCc2ccc(-c3ccc(OC)nc3)c(C(C)(C)C)c2)c1` (single isomer, unassigned) [Example 67.19, (3R)-3-(3-(((3-(1,1-Dimethylethyl)-4-(6-(methyloxy)-3-pyridinyl)phenyl)methyl)oxy)phenyl)hexanoic acid or (3S)-3-(3-(((3-(1,1-dimethylethyl)-4-(6-(methyloxy)-3-pyridinyl)phenyl)methyl)oxy)phenyl)hexanoic acid], the pEC50 was 5.00 to 6.00.
With `CCCC(CC(=O)O)c1cccc(OCc2ccc(-c3cccc(OC)n3)cc2)c1` (single isomer, unassigned) [Example 67.22, (3R)-3-(3-(((4-(6-(Methyloxy)-2-pyridinyl)phenyl)methyl)oxy)phenyl)hexanoic acid or (3S)-3-(3-(((4-(6-(methyloxy)-2-pyridinyl)phenyl)methyl)oxy)phenyl)hexanoic acid], the pEC50 was 5.00 to 6.00.
`CCC[C@H](CC(=O)O)c1cccc(OCc2ccc(-c3cc(OC)ccc3F)c(COCC)c2)c1` (single isomer, unassigned) [Example 67.23, (3R)-3-(3-(((2-((Ethyloxy)methyl)-2′-fluoro-5′-(methyloxy)-1,1′-biphenyl-4-yl)methyl)oxy)phenyl)hexanoic acid or (3S)-3-(3-(((2-((ethyloxy)methyl)-2′-fluoro-5′-(methyloxy)-1,1′-biphenyl-4-yl)methyl)oxy)phenyl)hexanoic acid]: the pEC50 is 5.00 to 6.00.
Then `C=CC(C)(C)[C@H](O)c1cc(COc2cccc([C@H](CCC)CC(=O)O)c2)ccc1-c1cc(OC)ccc1F` (single isomer, unassigned) [Example 67.25, (3R)-3-(3-(((2′-Fluoro-2-((1S)-1-hydroxy-2,2-dimethyl-3-butenyl)-5′-(methyloxy)-1,1′-biphenyl-4-yl)methyl)oxy)phenyl)hexanoic acid or (3R)-3-(3-(((2′-fluoro-2-((1R)-1-hydroxy-2,2-dimethyl-3-butenyl)-5′-(methyloxy)-1,1′-biphenyl-4-yl)methyl)oxy)phenyl)hexanoic acid], with 5.00 to 6.00; and `CCCC(CC(=O)O)c1cccc(OCc2ccc(-c3cc(OC)ccc3F)c(C(OC)C(C)(C)CC)c2)c1` (single isomer, unassigned) [Example 67.26], with 5.00 to 6.00.
With `CCC[C@H](CC(=O)O)c1cccc(OCc2ccc(-c3cc(OC)ccc3F)c(COCC=C(C)C)c2)c1` (single isomer, unassigned) [Example 67.27, (3R)-3-(3-(((2′-Fluoro-2-(((3-methyl-2-butenyl)oxy)methyl)-5′-(methyloxy)-1,1′-biphenyl-4-yl)methyl)oxy)phenyl)hexanoic acid or (3S)-3-(3-(((2′-fluoro-2-(((3-methyl-2-butenyl)oxy)methyl)-5′-(methyloxy)-1,1′-biphenyl-4-yl)methyl)oxy)phenyl)hexanoic acid], the pEC50 was 5.00 to 6.00.
The molecule `CCCC(CC(=O)O)c1cccc(OCc2ccc(-c3cc(OC)ccc3F)c(CN3CCCC3)c2)c1` (single isomer, unassigned) [Example 67.28, (3R)-3-(3-(((2′-Fluoro-5′-(methyloxy)-2-(1-pyrrolidinylmethyl)-1,1′-biphenyl-4-yl)methyl)oxy)phenyl)hexanoic acid or (3S)-3-(3-(((2′-fluoro-5′-(methyloxy)-2-(1-pyrrolidinylmethyl)-1,1′-biphenyl-4-yl)methyl)oxy)phenyl)hexanoic acid] gave a pEC50 of 5.00 to 6.00.
For `COc1ccc(F)c(-c2ccc(COc3cccc(C(CCC(F)(F)F)CC(=O)O)c3)cc2C(C)(C)C)c1` (single isomer, unassigned) [Example 68.1, (3R)-3-(3-(((2-(1,1-Dimethylethyl)-2′-fluoro-5′-(methyloxy)-1,1′-biphenyl-4-yl)methyl)oxy)phenyl)-6,6,6-trifluorohexanoic acid or (3S)-3-(3-(((2-(1,1-dimethylethyl)-2′-fluoro-5′-(methyloxy)-1,1′-biphenyl-4-yl)methyl)oxy)phenyl)-6,6,6-trifluorohexanoic acid], the pEC50 was 6.00 to 7.00.
`CCCCOc1cc(COc2cccc(C(CCC(F)(F)F)CC(=O)O)c2)ccc1-c1cc(OC)ccc1F` (single isomer, unassigned) [Example 68.2, (3R)-3-(3-(((2-(Butyloxy)-2′-fluoro-5′-(methyloxy)-1,1′-biphenyl-4-yl)methyl)oxy)phenyl)-6,6,6-trifluorohexanoic acid or (3S)-3-(3-(((2-(butyloxy)-2′-fluoro-5′-(methyloxy)-1,1′-biphenyl-4-yl)methyl)oxy)phenyl)-6,6,6-trifluorohexanoic acid] gave a pEC50 of 5.00 to 6.00.
In turn, `CCCCOc1cc(COc2cccc(C(CC(=O)O)CC3CC3)c2)ccc1-c1cc(OC)ccc1F` (single isomer, unassigned) [Example 69.5, (3R)-3-(3-(((2-(Butyloxy)-2′-fluoro-5′-(methyloxy)-1,1′-biphenyl-4-yl)methyl)oxy)phenyl)-4-cyclopropylbutanoic acid or (3S)-3-(3-(((2-(butyloxy)-2′-fluoro-5′-(methyloxy)-1,1′-biphenyl-4-yl)methyl)oxy)phenyl)-4-cyclopropylbutanoic acid] had a pEC50 of 6.00 to 7.00.
On to `COc1ccc(F)c(-c2ccc(COc3cccc(C(CC(=O)O)CC4CC4)c3)cc2C2CCCC2(C)C)c1` (single isomer, unassigned) [Example 69.7], for which the pEC50 is 6.00 to 7.00.
Then `COc1cccc(-c2ccc(COc3cccc(C(CC(=O)O)CC4CC4)c3)cc2C2CCCC2(C)C)c1` (single isomer, unassigned) [Example 69.9], with 6.00 to 7.00; and `COc1ccc(F)c(-c2ccc(COc3cccc(C(CC(=O)O)CC4CC4)c3)cc2C(=O)C(C)(C)C)c1` (single isomer, unassigned) [Example 69.20, (3R)-4-Cyclopropyl-3-(3-(((2-(2,2-dimethylpropanoyl)-2′-fluoro-5′-(methyloxy)-1,1′-biphenyl-4-yl)methyl)oxy)phenyl)butanoic acid or (3S)-4-cyclopropyl-3-(3-(((2-(2,2-dimethylpropanoyl)-2′-fluoro-5′-(methyloxy)-1,1′-biphenyl-4-yl)methyl)oxy)phenyl)butanoic acid], with 5.00 to 6.00.
The molecule `COc1ccc(F)c(-c2ccc(COc3cccc([C@@H](CC(=O)O)CC4CC4)c3)cc2S(=O)(=O)C(C)C)c1` (single isomer, unassigned) [Example 69.25, (R)-4-Cyclopropyl-3-{3-[2′-fluoro-5′-methoxy-2-(propane-2-sulfonyl)-biphenyl-4-ylmethoxy]-phenyl}-butyric acid or (S)-4-cyclopropyl-3-{3-[2′-fluoro-5′-methoxy-2-(propane-2-sulfonyl)-biphenyl-4-ylmethoxy]-phenyl}-butyric acid] had a pEC50 of 5.00 to 6.00.
Regarding `COc1ccc(F)c(-c2ccc(COc3cccc([C@@H](CC(=O)O)CC4CC4)c3)cc2[S+]([O-])C(C)C)c1` (single isomer, unassigned) [Example 69.26, (R)-4-Cyclopropyl-3-{3-[2′-fluoro-5′-methoxy-2-(propane-2-sulfinyl)-biphenyl-4-ylmethoxy]-phenyl}-butyric acid or (S)-4-cyclopropyl-3-{3-[2′-fluoro-5′-methoxy-2-(propane-2-sulfinyl)-biphenyl-4-ylmethoxy]-phenyl}-butyric acid], the pEC50 was 5.00 to 6.00.
With `COc1ccc(F)c(-c2ccc(COc3cccc(C(CC(=O)O)CC4CC4)c3)cc2C2OCCCC2(C)C)c1` (single isomer, unassigned) [Example 69.27, (R)-4-Cyclopropyl-3-{3-[2-(3,3-dimethyl-tetrahydro-pyran-2-yl)-2′-fluoro-5′-methoxy-biphenyl-4-ylmethoxy]-phenyl}-butyric acid or (S)-4-cyclopropyl-3-{3-[2-(3,3-dimethyl-tetrahydro-pyran-2-yl)-2′-fluoro-5′-methoxy-biphenyl-4-ylmethoxy]-phenyl}-butyric acid], the pEC50 was 6.00 to 7.00.
In the case of `CCOCc1cc(COc2cccc(C(CC(=O)O)CC3CC3)c2)ccc1-c1cc(OC)ccc1F` (single isomer, unassigned) [Example 69.37, (3R)-4-Cyclopropyl-3-(3-(((2-((ethyloxy)methyl)-2′-fluoro-5′-(methyloxy)-1,1′-biphenyl-4-yl)methyl)oxy)phenyl)butanoic acid or (3S)-4-cyclopropyl-3-(3-(((2-((ethyloxy)methyl)-2′-fluoro-5′-(methyloxy)-1,1′-biphenyl-4-yl)methyl)oxy)phenyl)butanoic acid], the pEC50 was 5.00 to 6.00.
The molecule `C=CC(C)(C)[C@H](OC)c1cc(COc2cccc([C@@H](CC(=O)O)CC3CC3)c2)ccc1-c1cc(OC)ccc1F` (single isomer, unassigned) [Example 69.39] gave a pEC50 of 5.00 to 6.00.
`C=CC(C)(C)C(O)c1cc(COc2cccc(C(CC(=O)O)CC3CC3)c2)ccc1-c1cc(OC)ccc1F` (single isomer, unassigned) [Example 69.40] had a pEC50 of 5.00 to 6.00.
In turn, `CCC(C)(C)C(OC)c1cc(COc2cccc(C(CC(=O)O)CC3CC3)c2)ccc1-c1cc(OC)ccc1F` (single isomer, unassigned) [Example 69.41, (3R)-4-Cyclopropyl-3-(3-(((2-((1S)-2,2-dimethyl-1-(methyloxy)butyl)-2′-fluoro-5′-(methyloxy)-1,1′-biphenyl-4-yl)methyl)oxy)phenyl)butanoic acid or (3R)-4-cyclopropyl-3-(3-(((2-((1S)-2,2-dimethyl-1-(methyloxy)butyl)-2′-fluoro-5′-(methyloxy)-1,1′-biphenyl-4-yl)methyl)oxy)phenyl)butanoic acid] gave a pEC50 of 6.00 to 7.00.

In general, pEC50 refers to −log10 of the EC50, conventionally taken in molar units. Higher therefore signals a low EC50.
